PMC9968691, “Perfluoroalkyl substances (PFASs) are substrates of the renal human organic anion transporter 4 (OAT4)” (Archives of Toxicology, 2022)
Entries after “also recorded” stand apart in the source; their conditions may differ. Marks after values point to notes of the source that are not given here.

T1: human OAT4 (Homo sapiens, UniProt Q9NSA0)
T1 construct: expressed in transfected cells; host or cells: HEK293 cells transduced with recombinant baculovirus (CMV promoter)
T1 sequence (Q9NSA0 1-550): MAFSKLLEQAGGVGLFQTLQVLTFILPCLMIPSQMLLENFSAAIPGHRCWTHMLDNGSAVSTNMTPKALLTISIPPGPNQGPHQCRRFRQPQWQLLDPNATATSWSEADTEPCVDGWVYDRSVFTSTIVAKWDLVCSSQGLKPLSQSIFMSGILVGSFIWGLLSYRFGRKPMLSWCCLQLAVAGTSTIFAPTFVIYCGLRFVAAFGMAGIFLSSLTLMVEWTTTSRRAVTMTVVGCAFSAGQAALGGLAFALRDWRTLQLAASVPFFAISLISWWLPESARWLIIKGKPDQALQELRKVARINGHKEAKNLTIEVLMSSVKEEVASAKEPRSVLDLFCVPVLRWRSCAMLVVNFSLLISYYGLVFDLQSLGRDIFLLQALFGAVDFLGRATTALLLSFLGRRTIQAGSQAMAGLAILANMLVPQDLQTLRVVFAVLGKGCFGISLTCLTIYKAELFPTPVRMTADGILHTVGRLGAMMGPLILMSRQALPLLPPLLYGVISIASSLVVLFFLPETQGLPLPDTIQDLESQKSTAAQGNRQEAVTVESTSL

T2: human URAT1 (Homo sapiens, UniProt Q96S37)
T2 construct: expressed in transfected cells; host or cells: HEK293 cells transduced with recombinant baculovirus (CMV promoter)
T2 sequence (Q96S37 1-553): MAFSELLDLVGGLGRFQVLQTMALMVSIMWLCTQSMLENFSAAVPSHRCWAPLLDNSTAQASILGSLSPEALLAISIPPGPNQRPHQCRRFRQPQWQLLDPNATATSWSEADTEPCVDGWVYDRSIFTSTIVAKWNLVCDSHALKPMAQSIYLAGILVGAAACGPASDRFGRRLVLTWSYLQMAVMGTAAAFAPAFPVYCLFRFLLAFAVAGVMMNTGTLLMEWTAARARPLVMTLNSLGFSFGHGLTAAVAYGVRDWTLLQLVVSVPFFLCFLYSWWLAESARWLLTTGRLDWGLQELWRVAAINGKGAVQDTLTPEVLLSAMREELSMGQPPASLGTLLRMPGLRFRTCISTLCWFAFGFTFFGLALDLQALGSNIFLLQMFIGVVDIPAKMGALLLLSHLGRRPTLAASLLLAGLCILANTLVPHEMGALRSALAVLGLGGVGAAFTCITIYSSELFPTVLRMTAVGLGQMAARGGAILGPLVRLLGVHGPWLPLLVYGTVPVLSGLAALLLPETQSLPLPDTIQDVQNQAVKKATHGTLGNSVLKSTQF


What was measured:
[1] = cited from earlier work; for Reported half-life in humans: (average) serum half-life, ref Xu et al. (2020) for PFHpA, Olsen et al. (2007), Li et al. (2018), Xu et al. (2020) for PFOA, PFHxS, PFOS, Olsen et al. (2009) for PFBS; for Reported (average) serum half-life in humans: ref Olsen et al. (2009) for PFBS, Xu et al. (2020) for PFHpA
[2] = biological target: T1, human OAT4; assay: Screening of cellular PFAS accumulation in OAT4-transfected vs control-transfected HEK293 cells (PFAS mixture); type: cell-based; conditions: for Transport by OAT4 (cellular PFAS level in OAT4-transfected vs control-transfected cells; substantial = at least twofold higher): PFAS mixture, each 1 µM, 10 min; for OAT4 substrate: yes/no as identified in vitro in this study
Excerpt: (§1) The recombinant baculoviruses that contain the cDNA of human transporters OAT4 and URAT1 downstream of a cytomegalovirus (CMV) promotor were generated as previously described (Smeets et al. [2020]). As a negative control, baculovirus containing the gene for enhanced yellow fluorescence protein (eYFP) was produced similarly. Moreover, transduction of HEK293 cells and uptake assays were essentially performed as previously described (Smeets et al. [2020]). The culture medium was removed and cells were washed with buffer (HBSS plus 10 mM HEPES, pH 7.4). Uptake was initiated by replacing this solution with 150 µL of fresh transport buffer (HBSS (Life Technologies Invitrogen (Carlsbad, CA, USA))-HEPES (Sigma-Aldrich), pH 7.4) supplemented with the PFASs for 10 min. To terminate the reaction, transport buffer was replaced with 400 µL ice-cold HBSS-HEPES buffer containing 0.5% BSA (m/v; Roche Diagnostics GmbH (Mannheim, Germany)), after which the cells were washed twice with ice-cold HBSS-HEPES. Cellular PFAS concentrations were determined based on the method described by Rosenmai et al. ([2018]). Briefly, cells were solubilised in 250 µL lysis buffer and cell lysates were stored in Eppendorf tubes at − 80 °C and defrozen when needed for LC–MS analysis and for quantification of the protein concentration.
(§2) To 50 μL cell lysate, 850 μL methanol (Actu-All Chemicals, Oss, The Netherlands) containing internal standards (^13C4-PFHpA, ^13C4-PFOA, ^13C5-PFNA, ^13C2-PFDA, ^13C3-PFBS, ^18O2-PFHxS and ^13C4-PFOS (Wellington Laboratories, Canada) was added. These dilutions were vortexed well before centrifugation at maximum speed for 10 min at 4 °C. PFAS concentrations in the supernatant were determined using LC–MS/MS analysis. If required, samples were further diluted with methanol and containing internal standards. LC–MS/MS analysis was based on a Shimadzu UHPLC system containing: 2 pumps (LC 20AD xr); column oven (Shimadzu CTO-20AC); pump switch (Shimadzu FCV-11AL); degasser (Shimadzu DGU-20A3); and sample tray holder (Shimadzu SIL-20 AC XR model) (Shimadzu Corporation, Kyoto, Japan). An Acquity BEH-C18 analytical column (50 × 2.1 mm i.d., 1.7 μm, Waters, Milford, MA, USA) was used to separate the PFASs at a column temperature of 35 °C. In addition, a symmetry C18 analytical column (50 × 2.1 mm i.d., 5 µm, Waters, Milford, MA, USA) was used as a guard column, placed between the pump and the injector valve to isolate and delay interferences out of the LC system. The mobile phase consisted of 2 mM ammonium acetate (Merck Millipore, Darmstadt, Germany) in Milli-Q water (prepared using a Milli-Q system with a resistivity of at least 18.2 MΩ cm^−1 (Merck Millipore)) (mobile phase A) and Acetonitrile ULC/MS grade (Actu-All Chemicals, Oss, The Netherlands) (mobile phase B). The injection volume used was 20 μL. The chromatographic gradient was operated at a flow rate of 0.3 mL min^−1 starting from 25% mobile phase B in the first 0.1 min, a linear increase to 100% B in 6 min with a final hold of 2.5 min. The gradient was returned to 25% B within 0.1 min for 3.9 min to equilibrate before the next injection, resulting in a total run of 12.5 min.
(§3) Cellular PFAS content was normalised to cellular protein. To that end, from each cell lysate, 25 µL was used to determine the protein concentration (technical duplicate) using the Pierce BCA Protein Assay Kit (Thermo Scientific, Waltham, MA). First, samples were diluted two times with lysis buffer directly in a 96-wells plate (PS, F-bottom, clear; Greiner Bio-One, Alphen aan de Rijn, The Netherlands), and in each plate, a BSA standard curve (0.05–2 mg mL^−1 in lysis buffer) was included allowing protein quantification of the samples. The manufacturer’s protocol was followed for the subsequent steps and absorbance was measured using a microplate reader (Synergy™ HT BioTek, Winooski, VT) at 562 nm. […]

[3] = test system: albumin; conditions: cited from earlier work; for Reported albumin/water partition coefficients: ref Allendorf et al. (2019)
[4] = biological target: T2, human URAT1; assay: Screening of cellular PFAS accumulation in URAT1-transfected vs control-transfected HEK293 cells (PFAS mixture); type: cell-based; conditions: yes/no as identified in vitro in this study
Excerpt: as §1, §2, §3

[5] = biological target: T1, human OAT4; assay: OAT4-mediated cellular uptake kinetics (Michaelis–Menten) in OAT4-transfected vs control-transfected HEK293 cells; type: cell-based; conditions: OAT4-transfected minus control-transfected HEK293 cells, 1 min exposure, 1-300 µM; best-fit value (standard error)
Protocol: (§4) OAT4- and control-transfected cells were exposed for 1 min to a range of PFAS concentrations (1, 3, 10, 30, 100 and 300 µM) and cellular amounts were determined.
(§5) OAT4-transfected cells and control-transfected cells were exposed for 1 min to a range of PFAS concentrations and cellular amounts were determined. Amounts obtained in control-transfected cells were subtracted from amounts obtained in OAT4-transfected cells to obtain OAT4-mediated cellular uptake rates.

[6] = substrate: O=S(=O)(O)C(F)(F)C(F)(F)C(F)(F)C(F)(F)C(F)(F)C(F)(F)C(F)(F)C(F)(F)F; assay: cells, lysate or membranes; conditions: other: OAT4-transfected minus control-transfected HEK293 cells, 1 min exposure, 1-300 µM; best-fit value (standard error); pH 7.4
[7] = substrate: O=C(O)C(F)(F)C(F)(F)C(F)(F)C(F)(F)C(F)(F)C(F)(F)C(F)(F)C(F)(F)C(F)(F)F; assay: cells, lysate or membranes; conditions: other: OAT4-transfected minus control-transfected HEK293 cells, 1 min exposure, 1-300 µM; best-fit value (standard error); pH 7.4
[8] = substrate: O=C(O)C(F)(F)C(F)(F)C(F)(F)C(F)(F)C(F)(F)C(F)(F)C(F)(F)C(F)(F)F; assay: cells, lysate or membranes; conditions: other: OAT4-transfected minus control-transfected HEK293 cells, 1 min exposure, 1-300 µM; best-fit value (standard error); pH 7.4
[9] = substrate: O=C(O)C(F)(F)C(F)(F)C(F)(F)C(F)(F)C(F)(F)C(F)(F)F; assay: OAT4-mediated cellular uptake kinetics (Michaelis–Menten) in OAT4-transfected vs control-transfected HEK293 cells; type: cell-based, human; conditions: other: OAT4-transfected minus control-transfected HEK293 cells, 1 min exposure, 1-300 µM; best-fit value (standard error); pH 7.4
Protocol: as §4, §5

[10] = substrate: O=C(O)C(F)(F)C(F)(F)C(F)(F)C(F)(F)C(F)(F)C(F)(F)C(F)(F)F; assay: as above; type: cell-based, human; conditions: other: OAT4-transfected minus control-transfected HEK293 cells, 1 min exposure, 1-300 µM; best-fit value (standard error); pH 7.4
Protocol: as §4, §5

[11] = substrate: O=S(=O)(O)C(F)(F)C(F)(F)C(F)(F)C(F)(F)C(F)(F)C(F)(F)F; assay: as above; type: cell-based, human; conditions: other: OAT4-transfected minus control-transfected HEK293 cells, 1 min exposure, 1-300 µM; best-fit value (standard error); pH 7.4
Protocol: as §4, §5

Molecule | Reported half-life in humans [1] | Reported (average) serum half-life in humans [1] [days] | Transport by OAT4 (cellular PFAS level in OAT4-transfected vs control-transfected cells; substantial = at least twofold higher) [2] | OAT4 substrate [2] | Reported albumin/water partition coefficients [3] [L/kg] | URAT1 substrate [4] | also measured
O=C(O)C(F)(F)C(F)(F)C(F)(F)C(F)(F)C(F)(F)C(F)(F)F [PFHpA, Perfluoroheptanoic acid] | 0.17^b years | 62 | substantial transport; also recorded: more than twofold increase | Yes | 4.0 | No | 
O=S(=O)(O)C(F)(F)C(F)(F)C(F)(F)C(F)(F)C(F)(F)C(F)(F)F [PFHxS, Perfluorohexane sulfonate] | 2.9–8.5^c years |  | substantial transport; also recorded: more than twofold increase | Yes |  | No | 
O=C(O)C(F)(F)C(F)(F)C(F)(F)C(F)(F)C(F)(F)C(F)(F)C(F)(F)C(F)(F)C(F)(F)F [PFDA, perfluorodecanoic acid] |  |  | substantial transport; also recorded: more than twofold increase | Yes | 4.7 | No | 
O=C(O)C(F)(F)C(F)(F)C(F)(F)C(F)(F)C(F)(F)C(F)(F)C(F)(F)C(F)(F)F [PFNA, perfluorononanoic acid] |  |  | substantial transport; also recorded: more than twofold increase | Yes | 4.3 | No | Apparent Vmax [5]: 8.5 nmol min^−1 mg protein^−1
O=S(=O)(O)C(F)(F)C(F)(F)C(F)(F)C(F)(F)F [PFBS, perfluorobutane sulfonate] | 0.07–0.12^d years | 26 to 44 | rather limited; also recorded: limited transport | No |  | No | Binding to albumin ([3]; compared to the other PFASs, ref Allendorf et al. 2019, Gao et al. 2019, Lu et al. 2021): relatively low binding to albumin
human OAT4 (Homo sapiens) (protein, expressed in transfected cells; host or cells: HEK293 cells transduced with recombinant baculovirus (CMV promoter)) MAFSKLLEQAGGVGLFQTLQVLTFILPCLMIPSQMLLENFSAAIPGHRCWTHMLDNGSAVSTNMTPKALLTISIPPGPNQGPHQCRRFRQPQWQLLDPNATATSWSEADTEPCVDGWVYDRSVFTSTIVAKWDLVCSSQGLKPLSQSIFMSGILVGSFIWGLLSYRFGRKPMLSWCCLQLAVAGTSTIFAPTFVIYCGLRFVAAFGMAGIFLSSLTLMVEWTTTSRRAVTMTVVGCAFSAGQAALGGLAFALRDWRTLQLAASVPFFAISLISWWLPESARWLIIKGKPDQALQELRKVARINGHKEAKNLTIEVLMSSVKEEVASAKEPRSVLDLFCVPVLRWRSCAMLVVNFSLLISYYGLVFDLQSLGRDIFLLQALFGAVDFLGRATTALLLSFLGRRTIQAGSQAMAGLAILANMLVPQDLQTLRVVFAVLGKGCFGISLTCLTIYKAELFPTPVRMTADGILHTVGRLGAMMGPLILMSRQALPLLPPLLYGVISIASSLVVLFFLPETQGLPLPDTIQDLESQKSTAAQGNRQEAVTVESTSL |  |  |  |  |  |  | Km [6]: 48 (24) µM; Vmax [6]: 0.0022 µmol/min/mg; Vmax/Km [6]: 46 µL min^−1 mg protein^−1; Km [7]: 39 (15) µM; Vmax [7]: 0.006 µmol/min/mg; Vmax/Km [7]: 154 µL min^−1 mg protein^−1; Km [8]: 58 (15) µM; Vmax [8]: 0.0085 µmol/min/mg; Vmax/Km [8]: 147 µL min^−1 mg protein^−1; Km [9]: 60 (15) µM; Vmax [9]: 0.0045 µmol/min/mg; Vmax/Km [9]: 75 µL min^−1 mg protein^−1; Km [10]: 47 (15) µM; Vmax [10]: 0.0045 µmol/min/mg; Vmax/Km [10]: 96 µL min^−1 mg protein^−1; Km [11]: 92 (33) µM; Vmax [11]: 0.0073 µmol/min/mg; Vmax/Km [11]: 79 µL min^−1 mg protein^−1
